Consider one compound from patent US20260022134A1, “N-HETEROCYCLE-CONTAINING BORIC ACID COMPOUND AND PREPARATION METHOD AND APPLICATION THEREOF” (Hangzhou City University, priority 2022, published 2026).

Common to all, as to assay type: cell-based
One data set concerns glioma cells U251. As to the kind of experiment: Flow cytometry cell cycle analysis (PI staining). As to conditions: cells U251, 24 h treatment; increased from 14.70%. On the procedure:
(§1) The cells of the logarithmic phase were taken and dissociated by 0.25% trypsin-EDTA and blown into single cells, and inoculated into the 6-well plate with a density of 2000 to 3000 pcs/well, and gently shaken to disperse the cells uniformly and then placed into 5% CO2, 37° C. incubator for incubation. After 24 h, the original culture medium was discarded and a fresh cell culture medium containing drugs of corresponding concentrations was then added; after the cells were incubated for 24 h, the cells were dissociated by 0.25% trypsin-EDTA and cleaned twice with 1 mL of precooled PBS and then re-suspended with 250 μl PBS and slowly added dropwise into 750 μl of precooled 75% ethyl alcohol, and then fixed at the temperature of −20° C. overnight. […] Propidium iodide (PI) with a final concentration of […] was added for staining of 1 h free from light at room temperature, and then filtered by gauze and then transferred to a flow tube and detected and analyzed by a flow cytometer.
(§2) In order to determine the mechanism of the growth inhibition effect of (3-((5-chloro-4-(1H-pyrrolo[2,3-b]pyridin-3-yl)pyrimidin-2-yl)amino)phenyl)boric acid on the cells U251 and U87, after 24 h following the treatment with different concentrations of (3-((5-chloro-4-(1H-pyrrolo[2,3-b]pyridin-3-yl)pyrimidin-2-yl)amino)phenyl)boric acid, the cell cycle was analyzed and evaluated by flow cytometry.

The test system of another data set is glioma cells U87. As to the kind of experiment: Flow cytometry cell cycle analysis (PI staining). The following applies: cells U87, 24 h treatment; increased from 11.99%. On the procedure: as §1, §2
(Flow cytometry measures light scatter and fluorescence of single cells or particles in a stream.)

Data set [1] deals with p-Stat3, p-Akt, c-Myc, Cyclin B1, p-Erk1/2 in cells U87. As to the kind of experiment: Western blot of cell protein expressions. The following applies: cells U87, after 24 h treatment. On the procedure:
(§3) The cell supernatant was discarded and the cells were washed twice with PBS; based on cell confluence, a corresponding amount of Loading buffer was added, and stirred by a pipette tip while fully covered, and then collected to a centrifuge tube and centrifuged and then placed into a high-temperature metal bath of 100° C. for denaturation of 10 min, then cooled on ice and centrifuged and stored at the temperature of −20° C. for later use in the Western blot. The loading volume was adjusted by Western block pre-experiment to ensure the internal control proteins were uniform. • 2) BSA quantitative method
(§4) The cells treated by the trypsin dissociation and collection assay were centrifuged for 4 min at the rotation speed of 1500 rpm/min. The supernatant was discarded and the cells were re-suspended and washed with the pre-cooled PBS and then transferred to al. 5 mL Eppendorf tube and then centrifuged again and the supernatant was all discarded. Cell lysis was carried out on ice, and based on a precipitation amount, a proper amount of RIPA lysis solution was added and blown uniform by the pipette and then stood on ice. The cells were whirled or dispersed once every other 10 min, and 30 min later, the cells were put into a pre-cooled 4° C. centrifugal machine and centrifuged for 30 min at the rotation speed of 12000 rpm/min. The supernatant was sucked to a new Eppendorf tube to obtain a protein sample solution.
(§5) A standard protein BSA was selected for making a standard curve and the BSA was sequentially half-diluted by 10 factors. The protein sample was diluted with deionized water by 10 factors and 5 μL of diluted sample was sucked to a new Eppendorf tube and then 200 μL of BCA reagent was added to each tube (liquid A: liquid B=50:1) and placed in a 37° C. drying oven for incubation of 30 min After completion of the reaction, the liquid was whirled uniformly and 100 μL was sucked to a 96-well plate and measured for the OD value at the position of the wavelength 562 nm. Based on the standard curve, quantification was performed to sub-package the protein sample and then 5×Loading buffer was added for denaturation of 10 min at the temperature of 100° C., and cooled and centrifuged and then stored at the temperature of −20° C. for later use. • 3) Gel preparation: based on the size of target protein molecules, a desired gel was prepared and then solidified and then put into deionized water and stored in 4° C. refrigerator for later use. • 4) Electrophoresis: before electrophoresis, the protein sample was heated for 3 to 5 min at the temperature of 100° C. and then cooled and centrifuged and then loaded. A protein marker was added before the sample and then equal-volume or equal-quantity loading was performed in a sequence. After completion of loading, constant-voltage electrophoresis was performed with the voltage adjusted to 70V. Electrophoresis was stopped when the sample runs to a position 1 cm from the bottom glass plate, and transfer was performed. • 5) Transfer: 1×Transfer buffer 1000 mL containing 10% anhydrous ethanol was prepared, and the anhydrous ethanol activates PVDF membrane for 1 min and then the membrane was put into a Trans Buffer solution. Based on the target protein molecules, gel cutting was performed, and transfer was carried out based on black gel and white membrane. Under the condition of ice water bath, 330 mA constant-current transfer was performed for 70 min. • 6) Blocking: after transfer completion, the membrane was put into 5% skimmed mil powder solution and the shaker was blocked for 1 h at room temperature. • 7) Primary antibody incubation: a corresponding primary antibody was prepared for incubation of a target strip. The primary antibody was put into a 4° C. refrigerator and incubated by the shaker overnight. […]

The test system of data set [2] is p-Stat3, p-Akt, c-Myc, Cyclin B1, p-Erk1/2 in cells U251. Kind of data set: Western blot of cell protein expressions. The following applies: cells U251, after 24 h treatment. The method, then:
as §3, §4, §5
(Immunoblotting shows a protein as a band on a membrane.)

Data set [3] relates to glioblastoma cells U251. As to the kind of experiment: Transwell cell migration assay. The following applies: cells U251, 24 h, different concentrations. On the procedure: (§6) The cells of the logarithmic phase were taken and dissociated by 0.25% trypsin-EDTA and blown into single cells. 200 μL of serum-free culture medium containing 5×10^4 cells was sucked and added into the Transwell upper chamber and 600 μL of culture medium containing 20% FBS was transferred to the Transwell lower chamber and drugs of corresponding concentrations were added to the upper and lower chambers. Culture was performed for 24 h in the cell incubator. In each well of the 24-well plate, 300 μL of 1% crystal violet methanol solution was added. After the culture medium was sucked and discarded, the Transwell chamber was placed into crystal violet and fixed free from light at room temperature and stained for 30 min. The chamber was picked by tweezers into the PBS buffer solution and washed slowly, and the cells and surplus crystal violet in the upper chamber were gently wiped with a cotton swab and then photographed under microscope for counting to calculate the number of the migrating cells of each group. […]

Data set [4] deals with glioblastoma cells A172. Kind of data set: Transwell cell migration assay. As to conditions: cells A172, 24 h, different concentrations. The method, then:
as §6

Data set [5] has as its system glioblastoma cells U251. Kind of data set: Cell colony-formation assay. The following applies: cells U251, 14 days, different concentrations. The method, then: (§7) The cells of the logarithmic phase were taken and dissociated by 0.25% trypsin-EDTA and blown into single cells, and inoculated into the 6-well plate with a density of 2000 to 3000 pcs/well, and gently shaken to disperse the cells uniformly and then placed into 5% CO2, 37° C. incubator for incubation. After 24 h, the original culture medium was discarded and a fresh cell culture medium containing drugs of corresponding concentrations was then added, and the cells then were incubated in the incubator for about 14 days. During this period, the fresh culture medium containing the drugs of corresponding concentrations was replaced every two or three days. Frequent observation should be made to ensure that when a macroscopic colony appears in the culture plate, the culture was ended. The supernatant was discarded and cleaning was performed carefully twice with PBS. […] Finally, the number of the formed colonies was calculated.
(§8) In order to determine the effect of (3-((5-chloro-4-(1H-pyrrolo[2,3-b]pyridin-3-yl)pyrimidin-2-yl)amino)phenyl)boric acid on the cell colony formation ability of the glioblastoma, we treated the cells U251 and A172 with different concentrations of (3-((5-chloro-4-(1H-pyrrolo[2,3-b]pyridin-3-yl)pyrimidin-2-yl)amino)phenyl)boric acid and 14 days later, determined the cell colony formation ability by colony determination.

Data set [6] concerns glioblastoma cells A172. Kind of data set: Cell colony-formation assay. The following applies: cells A172, 14 days, different concentrations. On the procedure: as §7, §8
In data set [7] the test system is glioblastoma cells U251. Kind of data set: SRB colorimetric analysis, cell survival/proliferation. The method, then:
(§9) After passage to the logarithmic phase, the cells were dissociated by 0.25 trypsin-EDTA and blown into single cells, and with a final cell concentration adjusted to […], inoculated into a 96-well plate with each well 100 μl (edge wells were filled with sterile PBS), 5% CO2, and 37° C. incubation. After 24 h (until a single layer of cells were spread to 30% to 50% of the well bottom), a cell culture solution containing drugs of corresponding concentrations was added and incubated for 24, 48 and 72 h in a 5% CO2, 37° C. incubator. Each drug concentration was provided with three parallel wells. The cells were medicate-cultured for 24, 48 and 72 h and then fixed by trichloroacetic acid (TCA). Each well of the cells was fixed by a pre-cooled 15% TCA liquid 100 μl, and then the 96-well plate was moved to 4° C. and stood for 4 h. The fixing liquid was discarded and the 96 wells were washed five times with sterile triple-distilled water and spin-dried and air-dried in 37° C. drying oven. Each well was added with 100 μl 0.4% SRB solution, and kept free from light and stood for 30 min at room temperature. The SRB not combined with proteins was cleaned with 1% glacial acetic acid and air-dried in 37° C. drying oven. The combined SRB was dissolved by 100 μl 10 mM non-buffer Tris alkaline solution (pH 10.5), and oscillated and mixed uniformly and then measured for the OD value on an enzyme-linked immuno detector. By blank control zero setting, the OD value of each well was measured at the position of a wavelength of 570 nm. The obtained growth inhibition rate of the tumor cells was defined as an in vitro inhibition rate of the drug on the tumor cells. The inhibition rate is […].
(§10) Firstly, we evaluated the growth inhibition effect of (3-((5-chloro-4-(1H-pyrrolo[2,3-b]pyridin-3-yl)pyrimidin-2-yl)amino)phenyl)boric acid on the MG cells U251A172 and U87 of three different glioblastoma cell series. With different concentrations of (3-((5-chloro-4-(1H-pyrrolo[2,3-b]pyridin-3-yl)pyrimidin-2-yl)amino)phenyl)boric acid, the cells U251, A172 and U87 were treated for 24 h, 48 h and 72 h and then based on the SRB detection method, the survival rate of the cells treated by (3-((5-chloro-4-(1H-pyrrolo[2,3-b]pyridin-3-yl)pyrimidin-2-yl)amino)phenyl)boric acid was detected. […] The cytotoxic effect of the U87 was more obvious than those of U251 and A172.

Another data set deals with glioblastoma cells U87. The data set is described as above. On the procedure:
as §9, §10

The test system of data set [8] is glioblastoma cells A172. The data set is described as above. The method, then:
as §9, §10

One may read the IC50 as the midpoint of a concentration-inhibition curve. Low values mean inhibition by little substance, high ones a need for much substance.

Consider `OB(O)c1cccc(Nc2ncc(Cl)c(-c3c[nH]c4ncccc34)n2)c1` [(3-((5-chloro-4-(1H-pyrrolo[2,3-b]pyridin-3-yl)pyrimidin-2-yl)amino)phenyl)boric acid], for which the figures for the “distribution of the G2/M phase” value in the data set with glioma cells U251 and with glioma cells U87 were 40.61% and 42.62%, respectively. The “Cyclin B1 protein expression” value in [1] and in data set [2] was “decreased” in each case. In addition, the c-Myc protein expression result in data set [1] and in data set [2] was “decreased” each time. The p-Akt protein expression entry in data set [1] and in data set [2] was “decreased” each time. Moreover, the p-Erk1/2 protein expression entry in data set [1] and in data set [2] was “increased” throughout. Moreover, the p-Stat3 protein expression result in [1] and in data set [2] was “decreased” throughout. Moreover, the “cell migration (number of migrating cells)” value with glioblastoma cells U251 [3] and in the data set with glioblastoma cells A172 [4] was “significant cell migration inhibition effect” in each case. Besides, the “number of cell colonies” value in the data set with glioblastoma cells U251 [5] and in the data set on glioblastoma cells A172 [6] was “reduced the number of the cell colonies in a dose-dependent way” each time. Besides, the IC50 in the data set on glioblastoma cells U251 [7] (Homo sapiens, U-251, cells U251 treated for 72 h) came to 380 nM; in the data set on glioblastoma cells U87 (cells U87 treated for 72 h) it was 170 nM; with glioblastoma cells A172 [8] (Homo sapiens, A 172, cells A172 treated for 72 h), 480 nM. The “cytotoxic effect (survival rate, SRB)” value in the data set with glioblastoma cells U251 [7] (cells U251, 24 h, 48 h and 72 h, different concentrations) is “significant cytotoxic effect”; with glioblastoma cells U87 (cells U87, 24 h, 48 h and 72 h, different concentrations), “significant cytotoxic effect”; in the data set on glioblastoma cells A172 [8] (cells A172, 24 h, 48 h and 72 h, different concentrations), “significant cytotoxic effect”.
